Laboratory results taken from patent US6391892B1, “Naphthyl pharmaceutical compounds” (Eli Lilly and Company, priority 1995, dated 2002).

Test system: ovariectomized (OVX) female Sprague Dawley rats
Experiment: Osteoporosis Test Procedure (ovariectomized rat, femur density)
Assay type: in vivo
Conditions: orally administered in 20% hydroxypropyl cyclodextrin, daily for 35 days, compared to intact, vehicle treated controls
From the text: Seventy-five day old female Sprague Dawley rats (weight range of 200 to 225 g) are obtained from Charles River Laboratories (Portage, Mich.). The animals are either bilaterally ovariectomized (OVX) or exposed to a Sham surgical procedure at Charles River Laboratories, and then shipped after one week. Upon arrival, they are housed in metal hanging cages in groups of 3 or 4 per cage and have ad libitum access to food (calcium content approximately 0.5%) and water for one week. Room temperature is maintained at 22.2°±1.70° C. with a minimum relative humidity of 40%. The photoperiod in the room is 12 hours light and 12 hours dark.
After a one week acclimation period (therefore, two weeks post-OVX) daily dosing with test compound is initiated. […] The animals are then sacrificed by asphyxiation with CO2, the uterus is removed through a midline incision, and a wet uterine weight is determined.
Following the General Preparation Procedure, infra, the rats are treated daily for 35 days (6 rats per treatment group) and sacrificed by carbon dioxide asphyxiation on the 36th day. The 35 day time period is sufficient to allow maximal reduction in bone density, measured as described herein. […]
The right femurs are excised and digitilized x-rays generated and analyzed by an image analysis program (NIH image) at the distal metaphysis. […]

SMILES: C#C[C@]1(O)CC[C@H]2[C@@H]3CCc4cc(O)ccc4[C@H]3CC[C@@]21C [ethynyl estradiol, 17α-ethynyl estradiol]
- reduction in femur density caused by ovariectomy: prevented this loss
